Consider 13 compounds from patent US10202378B2, “Therapeutic compounds and uses thereof” (GENENTECH, INC., priority 2015, dated 2019).

The target in one assay is TAF1-BD1 (Homo sapiens, UniProt P21675). In words: TAF1-BD1 TR-FRET Binding Assay. The following applies: read-out: TAF1-BD1 HTRF IC50.
Another assay has as its target TAF1-BD2 (Homo sapiens, UniProt P21675). The experiment in a line: TAF1-BD2 TR-FRET Binding Assay. The following applies: read-out: TAF1-BD2 HTRF IC50.

pIC50: −log10 of the molar value.

`Cc1[nH]c2c(=O)n(C)cc(C#CC(C)(O)C3CC3)c2c1-c1nnc(C(C)(C)C)o1` (single isomer, unassigned) [Example 98b, 3-(5-tert-butyl-1,3,4-oxadiazol-2-yl)-4-(3-cyclopropyl-3-hydroxy-but-1-ynyl)-2,6-dimethyl-1H-pyrrolo[2,3-c]pyridin-7-one]: the figures for the negative logarithm of the IC50 (pIC50) on TAF1-BD1 and on TAF1-BD2 were 6.97 and 7.47, respectively.

For `Cc1[nH]c2c(=O)n(C)cc(C#CC(C)(C)O)c2c1C(=O)NC(C)(C)C` [Example 170, N-tert-butyl-4-(3-hydroxy-3-methyl-but-1-ynyl)-2,6-dimethyl-7-oxo-1H-pyrrolo[2,3-c]pyridine-3-carboxamide], the negative-log IC50 (pIC50) is 5.44 on TAF1-BD1 and 6.46 at TAF1-BD2.

For the compound `CCOC(=O)c1c(C)[nH]c2c(=O)n(C)cc(C#CC3(C)COC3)c12` [Example 13, ethyl 2,6-dimethyl-4-[2-(3-methyloxetan-3-yl)ethynyl]-7-oxo-1H-pyrrolo[2,3-c]pyridine-3-carboxylate], the pIC50 was 6.36 at TAF1-BD1 and 6.42 on TAF1-BD2.

Consider `C=CCCn1cc(C#CC(C)(O)C2CC2)c2c(C(=O)OCC)c(C)[nH]c2c1=O` (centres unmarked) [Example 46, ethyl 6-but-3-enyl-4-(3-cyclopropyl-3-hydroxy-but-1-ynyl)-2-methyl-7-oxo-1H-pyrrolo[2,3-c]pyridine-3-carboxylate], for which the results for the pIC50 on TAF1-BD1 and at TAF1-BD2 were 5.65 and 6.88, respectively.

For `CCOC(=O)c1c(C)[nH]c2c(=O)n(C)cc(C#Cc3ccc(OC)cc3)c12` [Example 58, ethyl 4-[2-(4-methoxyphenyl)ethynyl]-2,6-dimethyl-7-oxo-1H-pyrrolo[2,3-c]pyridine-3-carboxylate], the pIC50 at TAF1-BD1 is 6.50; on TAF1-BD2, 7.42.

On to `C=CCCn1cc(C#CC(C)(C)O)c2c(C(=O)OCC)c(C)[nH]c2c1=O` [Example 49, ethyl 6-but-3-enyl-4-(3-hydroxy-3-methyl-but-1-ynyl)-2-methyl-7-oxo-1H-pyrrolo[2,3-c]pyridine-3-carboxylate], for which the pIC50 on TAF1-BD1 was 5.55; at TAF1-BD2 it was 6.94.

On to `CCOC(=O)c1c(C)[nH]c2c(=O)n(C)cc(C#CC(O)(c3cccc(-c4cccnc4)c3)C(F)(F)F)c12` (centres unmarked) [Example 100, ethyl 2,6-dimethyl-7-oxo-4-[4,4,4-trifluoro-3-hydroxy-3-[3-(3-pyridyl)phenyl]but-1-ynyl]-1H-pyrrolo[2,3-c]pyridine-3-carboxylate], for which the negative-log IC50 (pIC50) on TAF1-BD1 is 6.72; at TAF1-BD2, 7.56.

On to `Cc1[nH]c2c(=O)n(C)cc(C#CC(C)(O)C3CC3)c2c1-c1nnc(C(C)CN2CCOCC2)o1` (centres unmarked) [Example 176, 4-(3-cyclopropyl-3-hydroxy-but-1-ynyl)-2,6-dimethyl-3-[5-(1-methyl-2-morpholino-ethyl)-1,3,4-oxadiazol-2-yl]-1H-pyrrolo[2,3-c]pyridin-7-one], for which the pIC50 on TAF1-BD1 is 6.62; at TAF1-BD2, 7.42.

As to `Cc1[nH]c2c(=O)n(C)cc(C#CC(O)(c3ccccc3)C(F)(F)F)c2c1C(=O)OC(C)(C)CC#N` (centres unmarked) [Example 136, (2-cyano-1,1-dimethyl-ethyl) 2,6-dimethyl-7-oxo-4-(4,4,4-trifluoro-3-hydroxy-3-phenyl-but-1-ynyl)-1H-pyrrolo[2,3-c]pyridine-3-carboxylate], the pIC50 is 6.57 on TAF1-BD1 and 7.44 at TAF1-BD2.

`C=CCCn1cc(C#CC(C)(C)CO)c2c(C(=O)OCC)c(C)[nH]c2c1=O` [Example 47, ethyl 6-but-3-enyl-4-(4-hydroxy-3,3-dimethyl-but-1-ynyl)-2-methyl-7-oxo-1H-pyrrolo[2,3-c]pyridine-3-carboxylate]: the pIC50 at TAF1-BD1 is 5.31; at TAF1-BD2, 6.43.

For `CCOC(=O)c1c(C)[nH]c2c(=O)n(C)cc(C#CC(O)(c3cccc(C#N)c3)C(F)(F)F)c12` (centres unmarked) [Example 40, ethyl 4-(3-(3-cyanophenyl)-4,4,4-trifluoro-3-hydroxybut-1-yn-1-yl)-2,6-dimethyl-7-oxo-6,7-dihydro-1H-pyrrolo[2,3-c]pyridine-3-carboxylate], the pIC50 is 6.45 at TAF1-BD1 and 7.16 at TAF1-BD2.

Regarding `Cc1nnc(-c2c(C)[nH]c3c(=O)n(C)cc(C#CC(C)(C)O)c23)o1` [Example 177, 4-(3-hydroxy-3-methyl-but-1-ynyl)-2,6-dimethyl-3-(5-methyl-1,3,4-oxadiazol-2-yl)-1H-pyrrolo[2,3-c]pyridin-7-one], the pIC50 on TAF1-BD1 was 6.27; at TAF1-BD2, 7.29.

Consider `CCOC(=O)c1c(C)[nH]c2c(=O)n(C)cc(C#CC(C)(O)COc3ccccc3)c12` (centres unmarked) [Example 17, ethyl 4-(3-hydroxy-3-methyl-4-phenoxy-but-1-ynyl)-2,6-dimethyl-7-oxo-1H-pyrrolo[2,3-c]pyridine-3-carboxylate], for which the values for the pIC50 on TAF1-BD1 and on TAF1-BD2 were 6.39 and 7.17, respectively.

As usually defined, the pIC50 is the negative decadic logarithm of the IC50, by convention in mol/L.
